From paper PMC4594013 (Frontiers in Pharmacology, 2015)
Where “and” joins values, the source holds several entries; their conditions need not be identical. Equal values may be shown once. Where a name gives a salt, the structure may show the parent alone. Read-outs that look alike come from different tables or passages of the source.

Assays:
OAT2-tv1 [1] = target: T1, OAT2-tv1 (Homo sapiens, UniProt Q9Y694); assay: Inhibition of [3H]penciclovir uptake into CHO-OAT2-tv1 cells; format: cell-based; details: 5 min; for IC50 / % Inhibition: room temperature; for % Inhibition: inhibition of [3H]penciclovir uptake by CHO-OAT2-tv1 cells at the maximum concentration of test compound (Table 2, c1); for cis-inhibition of penciclovir uptake: CHO-OAT2-tv1 cells, test compound 1 mM, [3H]penciclovir ∼30 nM
T1 sequence (Q9Y694 1-546 isoform Q9Y694-2): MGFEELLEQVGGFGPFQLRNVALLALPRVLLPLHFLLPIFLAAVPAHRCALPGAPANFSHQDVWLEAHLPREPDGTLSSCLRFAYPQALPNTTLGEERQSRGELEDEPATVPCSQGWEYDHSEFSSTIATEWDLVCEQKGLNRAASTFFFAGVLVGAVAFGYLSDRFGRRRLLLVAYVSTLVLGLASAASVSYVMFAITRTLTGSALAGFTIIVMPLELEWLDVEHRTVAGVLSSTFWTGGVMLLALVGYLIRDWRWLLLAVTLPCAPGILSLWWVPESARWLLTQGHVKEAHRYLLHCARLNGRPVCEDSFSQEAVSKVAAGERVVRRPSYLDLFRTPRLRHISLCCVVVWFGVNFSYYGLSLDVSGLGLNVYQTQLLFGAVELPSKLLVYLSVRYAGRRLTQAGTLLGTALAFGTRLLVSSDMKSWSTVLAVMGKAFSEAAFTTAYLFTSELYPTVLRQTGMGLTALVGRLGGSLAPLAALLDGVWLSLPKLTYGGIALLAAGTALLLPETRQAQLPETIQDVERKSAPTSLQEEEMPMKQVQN
Experimental: (§1) All experiments examining cellular radiolabeled compound uptake were conducted using cells grown to confluence in 24-well flat bottom plates. The transport solution consisted of WB (room temperature) containing radiolabeled compound and the uptake period for all experiments was at an initial rate time point of 5 min. [^3H]Penciclovir served as the probe OAT2 substrate. We also examined the uptake of [^3H]para-aminohippurate, [^3H]estrone-3-sulfate, [^14C]glutarate, [^14C]succinate, [^3H]paclitaxel, and [^3H]dehydroepiandrosterone sulfate by OAT2 since published studies indicate that they are substrates of the transport protein ([Sun et al., 2001]; [Kobayashi et al., 2005a]). […] For all cellular uptake experiments, the medium was aspirated and the cells were rinsed once with WB (0.3 ml). Following the uptake period, cells were washed three times with ice-cold WB (0.5 ml each wash). After aspirating the final wash the cells were lysed in 0.5 N NaOH/1% SDS (0.4 ml) for ∼30 min on an orbital shaker. 1 N HCl (0.2 ml) was then added to neutralize the NaOH, and the cell lysates (0.5 ml) were transferred to scintillation vials containing liquid scintillation cocktail (CytoScint ES, MP Biomedicals). Cellular radioactivity content was determined with a Beckman LS6500 liquid scintillation counter. Protein content was determined using the bicinchoninic acid method. See the Figure and Table Legends for additional details describing the experimental conditions used.
The concentration of each Kreb’s cycle intermediate was 1 mM. Uptake was conducted for 5 min.

OAT2-tv3 = test system: OAT2-tv3; set-up: method as in Sato et al., 2010; details: OAT2-tv3 in HEK293 cells; ref Sato et al., 2010; cited from earlier work
OAT2-tv1 [2] = target: T1, OAT2-tv1; details: cited from earlier work
[3] = test system: OAT2 with an unidentified sequence; details: cited from earlier work
OAT2-tv1 [4] = target: T1, OAT2-tv1; assay: Cellular uptake of radiolabeled compounds by CHO, HEK or MDCK cells stably expressing OAT2-tv1; details: for uptake compared to respective parental cells: CHO-, HEK- and MDCK-OAT2-tv1 cells, para-aminohippurate 8 nM, estrone-3-sulfate 10 nM, glutarate 18 μM
Experimental: as §1
FIGURE 2 Cellular accumulation of [^3H]penciclovir (A), [^3H]para-aminohippurate (B), [^3H]estrone-3-sulfate (C), or [^14C]glutarate (D) by parental CHO, HEK, or MDCK cells, or CHO, HEK, or MDCK cells stably expressing either OAT2-tv1 or OAT2-tv2. The concentration of [^3H]penciclovir in the transport solution was 0.1 μM for CHO and MDCK cell experiments, and 0.5 μM for HEK cell experiments. The concentrations of [^3H]para-aminohippurate, [^3H]estrone-3-sulfate and [^14C]glutarate were 8 nM, 10 nM, and 18 μM, respectively. Uptake was conducted for 5 min at room temperature.
FIGURE 4 Cellular accumulation of [^14C]succinate (18.5 μM) by CHO parental cells, CHO-OAT2-tv1 cells or CHO cells stably expressing the Na-dicarboxylate cotransporter 3 (NaDC3). Uptake was conducted for 5 min. Values are the mean ± standard error of the mean of four experiments for CHO parental and CHO-OAT2-tv1 cells. A single uptake experiment was performed with CHO-NaDC3 cells.

OAT2-tv2 [5] = target: T2, OAT2-tv2 (Homo sapiens, UniProt Q9Y694); assay: Cellular uptake of radiolabeled compounds by CHO, HEK or MDCK cells stably expressing OAT2-tv2; format: cell-based; set-up: The open reading frame of the human ortholog of OAT2 transcript variant 2 (OAT2-tv2) containing 548 amino acids was amplified from a construct obtained from Origene; host or cells: CHO, HEK and MDCK Flp-In cells; details: HEK- and MDCK-OAT2-tv2 cells, penciclovir 0.1/0.5 μM, para-aminohippurate 8 nM, estrone-3-sulfate 10 nM, glutarate 18 μM, 5 min
T2 sequence (Q9Y694 1-548): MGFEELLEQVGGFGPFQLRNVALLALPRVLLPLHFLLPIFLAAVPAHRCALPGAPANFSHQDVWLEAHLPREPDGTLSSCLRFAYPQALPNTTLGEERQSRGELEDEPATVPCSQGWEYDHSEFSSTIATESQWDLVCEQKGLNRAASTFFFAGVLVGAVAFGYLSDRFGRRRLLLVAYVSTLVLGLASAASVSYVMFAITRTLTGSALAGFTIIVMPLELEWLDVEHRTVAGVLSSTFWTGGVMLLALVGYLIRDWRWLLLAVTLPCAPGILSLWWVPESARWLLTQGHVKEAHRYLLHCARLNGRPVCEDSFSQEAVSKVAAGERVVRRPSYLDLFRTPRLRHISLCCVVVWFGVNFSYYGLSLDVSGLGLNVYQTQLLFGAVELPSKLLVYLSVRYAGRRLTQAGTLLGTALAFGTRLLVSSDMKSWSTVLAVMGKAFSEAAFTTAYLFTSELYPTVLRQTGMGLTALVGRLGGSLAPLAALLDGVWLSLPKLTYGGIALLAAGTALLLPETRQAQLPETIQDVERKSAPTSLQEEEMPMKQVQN
Experimental: [^3H]Penciclovir served as the probe OAT2 substrate. […] Protein content was determined using the bicinchoninic acid method.
Uptake was conducted for 5 min at room temperature.

OAT2-tv2 [6] = target: T2, OAT2-tv2; set-up: method as in Kobayashi et al., 2005a; details: OAT2-tv2 in Xenopus oocytes pre-loaded with 5 mM compound; ref Kobayashi et al., 2005a; cited from earlier work
CHO parental cells = assay: Cellular accumulation of radiolabeled compounds in CHO parental cells; format: cell-based, Chinese hamster; details: [3H]dehydroepiandrosterone sulfate 12 nM, [3H]paclitaxel 22 nM, n = 3
[7] = IC50, inhibition of [3H]penciclovir uptake by CHO-OAT2-tv1 cells
[8] = inhibition of [3H]penciclovir uptake by CHO-OAT2-tv1 cells, read-out: IC50

% Inhibition (OAT2-tv1 [1]) [%]	IC50 (OAT2-tv1 [1]; [8])	SMILES	other results
53	–	Nc1ccn(C[C@@H](CO)OCP(=O)(O)O)c(=O)n1 [Cidofovir]	–
95	57 µM and 57.2 µM	CN/C(=N/CCSCc1nc[nH]c1C)NC#N [Cimetidine]	inhibition of OAT2 ([3]; ref Khamdang et al., 2004): no inhibition
–	–	O=C(O)C[C@@H](O)C(=O)O [D-malate]	cis-inhibition of penciclovir uptake (OAT2-tv1 [1]): none of the Kreb’s cycle intermediates tested, including succinate and fumarate, cis-inhibited penciclovir uptake
65	12 ± 5.4 µM	CC[C@H]1OC(=O)[C@H](C)[C@@H](O[C@H]2C[C@@](C)(OC)[C@@H](O)[C@H](C)O2)[C@H](C)[C@@H](O[C@@H]2O[C@H](C)C[C@H](N(C)C)[C@H]2O)[C@](C)(O)C[C@@H](C)C(=O)[C@H](C)[C@@H](O)[C@]1(C)O [Erythromycin]	–
90	–	NS(=O)(=O)c1cc(C(=O)O)c(NCc2ccco2)cc1Cl [Furosemide]	IC50 ([3]; ref Hasannejad et al., 2004): 603 µM
99	–	COc1ccc2c(c1)c(CC(=O)O)c(C)n2C(=O)c1ccc(Cl)cc1 [Indomethacin]	IC50 ([3]; ref Khamdang et al., 2002): 64.1 µM
76	–	CN(Cc1cnc2nc(N)nc(N)c2n1)c1ccc(C(=O)N[C@@H](CCC(=O)O)C(=O)O)cc1 [Methotrexate]	–
85	78.4 ± 8.2 µM	Nc1nc2c(ncn2CCC(CO)CO)c(=O)[nH]1 [Penciclovir]	uptake of penciclovir, fold higher compared to parental cells (OAT2-tv1 [4]; CHO-OAT2-tv1 cells, [3H]penciclovir 0.1 μM, 5 min): 21 fold; uptake of penciclovir, fold higher compared to parental cells (OAT2-tv1 [4]; HEK-OAT2-tv1 cells, [3H]penciclovir 0.5 μM, 5 min): 39 fold; uptake of penciclovir, fold higher compared to parental cells (OAT2-tv1 [4]; MDCK-OAT2-tv1 cells, [3H]penciclovir 0.1 μM, 5 min): 5 fold; substrate of OAT2-tv1 (OAT2-tv1 [2]; ref Cheng et al., 2012): clearly substrates of OAT2-tv1; uptake compared to respective parental cells (OAT2-tv2 [5]): not different from uptake into the respective parental cells
64	–	CCCN(CCC)S(=O)(=O)c1ccc(C(=O)O)cc1 [Probenecid]	–
96	26.8 ± 2.4 µM	CCCCC[C@H](O)/C=C/[C@H]1[C@H](O)CC(=O)[C@@H]1C/C=C\CCCC(=O)O [Prostaglandin E2]	–
99	30 ± 3.6 µM	CCOc1cc(CC(=O)N[C@@H](CC(C)C)c2ccccc2N2CCCCC2)ccc1C(=O)O [Repaglinide]	–
96	17.1 ± 1.3 µM	CCCc1nc2c(C)cc(-c3nc4ccccc4n3C)cc2n1Cc1ccc(-c2ccccc2C(=O)O)cc1 [Telmisartan]	–
–	–	O=C(O)/C=C/C(=O)O [fumarate]	cis-inhibition of penciclovir uptake (OAT2-tv1 [1]): none of the Kreb’s cycle intermediates tested, including succinate and fumarate, cis-inhibited penciclovir uptake; stimulation of estrone-3-sulfate uptake by pre-loading (OAT2-tv2 [6]): 1.7 fold
–	–	Nc1nc(O)c2ncn(COC(CO)CO)c2n1 [ganciclovir]	substrate of OAT2-tv1 (OAT2-tv1 [2]; ref Cheng et al., 2012): clearly substrates of OAT2-tv1
–	–	O=C(O)CCCC(=O)O [glutarate]	uptake compared to respective parental cells (OAT2-tv1 [4]; 5 min): not different than uptake into the respective parental cells; uptake compared to respective parental cells (OAT2-tv2 [5]): not different than uptake into the respective parental cells
–	–	O=C(O)CC(=O)C(=O)O [oxaloacetate]	cis-inhibition of penciclovir uptake (OAT2-tv1 [1]): none of the Kreb’s cycle intermediates tested, including succinate and fumarate, cis-inhibited penciclovir uptake
–	–	CC(=O)O[C@H]1C(=O)[C@@]2(C)[C@H]([C@H](OC(=O)c3ccccc3)[C@]3(O)C[C@H](OC(=O)[C@H](O)[C@@H](NC(=O)c4ccccc4)c4ccccc4)C(C)=C1C3(C)C)[C@]1(OC(C)=O)CO[C@@H]1C[C@@H]2O [paclitaxel]	cellular accumulation (OAT2-tv1 [4]; 5 min, 22 nM): 90 ± 5.1 fmoles ⋅ mg protein^-1 ⋅ min^-1; mediated transport by OAT2-tv1 (OAT2-tv1 [4]; expressed in CHO cells): unable to show mediated transport; cellular accumulation (CHO parental cells): 89 ± 3.8 fmoles ⋅ mg protein^-1 ⋅ min^-1
99	210 µM	Nc1ccc(C(=O)NCC(=O)O)cc1 [para-aminohippurate]	uptake compared to respective parental cells (OAT2-tv1 [4]; 5 min): not different than uptake into the respective parental cells; uptake by HEK-OAT2-tv1 cells (OAT2-tv1 [2]; ref Cropp et al., 2008): failed to observe appreciable uptake; uptake compared to respective parental cells (OAT2-tv2 [5]): not different than uptake into the respective parental cells

SMILES	% Inhibition (OAT2-tv1 [1]) [%]	IC50 (OAT2-tv1 [1]; [8])	other results
Oc1ncnc2[nH]ncc12 [Allopurinol]	95	–	IC50 (OAT2-tv1 [1]; [7]): 70 µM and 70.1 µM; inhibition of uric acid transport (OAT2-tv3): did not inhibit uric acid transport; substrate of OAT2-tv1 (OAT2-tv1 [2]; ref Cropp et al., 2008): substrate
C[C@]12CC[C@@H]3c4ccc(OS(=O)(=O)O)cc4CC[C@H]3[C@@H]1CCC2=O [Estrone Sulfate]	95	36.1 ± 3.9 µM	uptake compared to respective parental cells (OAT2-tv1 [4]; 5 min): not different than uptake into the respective parental cells; uptake compared to respective parental cells (OAT2-tv2 [5]): not different than uptake into the respective parental cells
CC[N+](CC)(CC)CC [Tetraethylammonium]	42	54.3 ± 33 µM	–
CCCCC[N+](CCCCC)(CCCCC)CCCCC [Tetrapentylammonium]	49	–	IC50 (OAT2-tv1 [1]; [7]): 279 ± 142 µM
CCCCC(=O)N(Cc1ccc(-c2ccccc2-c2nnn[nH]2)cc1)[C@H](C(=O)O)C(C)C [Valsartan]	86	127 ± 29 µM	–
